Laboratory results taken from ChEMBL document CHEMBL1201862, “PubChem BioAssay data set” (2004).
Activity calls are given as the source filed them.

Experiments:
[1] = molecular target: T1, Nucleotide-binding oligomerization domain-containing protein 1 (Homo sapiens, UniProt Q9Y239); assay: NOD1 signaling inhibitors, SAR follow-up, revised (AID 2333); type: functional
T1 sequence (Q9Y239 whole entry): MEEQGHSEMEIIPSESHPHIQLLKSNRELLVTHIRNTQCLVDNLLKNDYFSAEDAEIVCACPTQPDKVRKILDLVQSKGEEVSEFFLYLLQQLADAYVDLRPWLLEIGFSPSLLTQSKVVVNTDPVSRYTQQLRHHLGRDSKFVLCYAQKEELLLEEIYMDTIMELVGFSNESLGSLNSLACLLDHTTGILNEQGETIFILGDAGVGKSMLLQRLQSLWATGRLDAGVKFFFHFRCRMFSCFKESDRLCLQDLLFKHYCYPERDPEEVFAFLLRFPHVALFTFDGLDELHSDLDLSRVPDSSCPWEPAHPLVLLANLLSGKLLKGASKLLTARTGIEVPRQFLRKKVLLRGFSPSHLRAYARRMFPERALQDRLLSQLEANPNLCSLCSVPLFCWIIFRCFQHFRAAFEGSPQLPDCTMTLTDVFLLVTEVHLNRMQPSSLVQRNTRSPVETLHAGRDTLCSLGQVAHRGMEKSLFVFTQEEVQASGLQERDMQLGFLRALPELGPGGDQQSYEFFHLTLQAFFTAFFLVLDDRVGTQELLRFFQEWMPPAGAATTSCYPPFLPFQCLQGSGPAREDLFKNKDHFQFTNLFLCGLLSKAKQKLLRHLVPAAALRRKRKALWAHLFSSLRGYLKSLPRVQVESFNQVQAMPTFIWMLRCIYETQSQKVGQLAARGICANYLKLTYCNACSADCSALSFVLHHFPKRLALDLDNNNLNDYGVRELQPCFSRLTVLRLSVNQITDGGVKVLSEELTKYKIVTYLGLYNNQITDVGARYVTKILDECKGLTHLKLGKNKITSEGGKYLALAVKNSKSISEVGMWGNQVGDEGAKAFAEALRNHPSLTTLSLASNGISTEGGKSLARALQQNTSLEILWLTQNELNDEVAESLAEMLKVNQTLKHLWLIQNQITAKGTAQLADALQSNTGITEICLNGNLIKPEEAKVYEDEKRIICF

Tumor necrosis factor = Tumor necrosis factor (Homo sapiens, UniProt P01375); assay: TNFa-triggered NF-kB activation inhibitors, SAR follow-up, cell-based, revised (AID 2337); type: functional
Sequence of Tumor necrosis factor (P01375 whole entry): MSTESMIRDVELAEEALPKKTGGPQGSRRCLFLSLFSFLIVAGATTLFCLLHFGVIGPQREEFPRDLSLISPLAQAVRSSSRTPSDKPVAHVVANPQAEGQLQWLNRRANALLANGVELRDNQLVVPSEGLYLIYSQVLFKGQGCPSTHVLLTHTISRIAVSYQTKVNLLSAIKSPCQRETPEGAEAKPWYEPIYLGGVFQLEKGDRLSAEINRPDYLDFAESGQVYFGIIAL

HEK293 = assay: cells; settings: Homo sapiens;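 also: cells exposed to compound for 14 hours overnight before viability readout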
[2] = molecular target: Nucleotide-binding oligomerization domain-containing protein 2 (Homo sapiens, UniProt Q9HC29); assay: PubChem AID 2334; type: functional
Bcl-2-like protein 10 = Bcl-2-like protein 10 (Homo sapiens, UniProt Q9HD36); assay: displacers of TR3 peptide from Bcl-B, primary screen, selectivity assay for Bfl-1 inhibitor project, biochemical, fluorescence polarization, FITC-TR3 peptide (AID 748);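 also: fluorescence polarization from a fluorescein-labelled TR3 peptide binding purified Bcl-B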
Sequence of Bcl-2-like protein 10 (Q9HD36 whole entry): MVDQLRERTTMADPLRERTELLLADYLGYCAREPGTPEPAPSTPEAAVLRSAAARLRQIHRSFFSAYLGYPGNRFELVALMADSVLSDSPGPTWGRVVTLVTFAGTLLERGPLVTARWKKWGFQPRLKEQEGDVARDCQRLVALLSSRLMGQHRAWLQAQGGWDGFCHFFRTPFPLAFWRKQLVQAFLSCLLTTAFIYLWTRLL

[3] = molecular target: G-protein coupled receptor 35 (Homo sapiens, UniProt Q9HC97); assay: GPR35 antagonists blocking zaprinast-driven arrestin recruitment, primary screen, imaging, U2OS, beta-arrestin-GFP, zaprinast agonist (AID 2058); type: functional;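 also: antagonist potency meaning inhibition of agonist-induced arrestin redistribution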
Sequence of G-protein coupled receptor 35 (Q9HC97 whole entry): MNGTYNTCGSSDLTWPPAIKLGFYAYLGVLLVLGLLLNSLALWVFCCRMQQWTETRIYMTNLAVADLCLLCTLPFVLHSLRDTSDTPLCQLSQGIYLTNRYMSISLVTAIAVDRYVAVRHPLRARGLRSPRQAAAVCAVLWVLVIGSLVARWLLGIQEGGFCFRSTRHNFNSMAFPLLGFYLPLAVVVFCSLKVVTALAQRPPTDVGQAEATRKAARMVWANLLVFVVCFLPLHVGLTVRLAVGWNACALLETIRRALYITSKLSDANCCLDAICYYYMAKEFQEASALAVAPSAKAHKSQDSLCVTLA

[4] = molecular target: T2, Neuropeptides B/W receptor type 1 (Homo sapiens, UniProt P48145); assay: Fluorescence-based dose response cell-based high throughput screening assay to identify antagonists of the G-protein coupled receptor 7 (GPR7). [Related pubchem assays: 1952 (Screening assay (GPR7 antagonists).), 1880 (Summary AID.)]; type: functional
T2 sequence (P48145 whole entry): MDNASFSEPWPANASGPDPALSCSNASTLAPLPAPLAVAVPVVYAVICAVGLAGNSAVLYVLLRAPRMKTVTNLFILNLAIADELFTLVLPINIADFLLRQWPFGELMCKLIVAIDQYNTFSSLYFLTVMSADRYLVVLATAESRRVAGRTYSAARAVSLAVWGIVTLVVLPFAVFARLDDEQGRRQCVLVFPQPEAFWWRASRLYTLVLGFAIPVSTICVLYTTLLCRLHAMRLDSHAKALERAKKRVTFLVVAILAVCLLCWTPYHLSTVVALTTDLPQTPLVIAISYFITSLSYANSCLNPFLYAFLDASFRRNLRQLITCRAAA

[5] = molecular target: T3, Melanin-concentrating hormone receptor 1 (Homo sapiens, UniProt Q99705); assay: Fluorescence-based counterscreen for antagonists of the G-protein coupled receptor 7 (GPR7): cell-based high throughput dose response assay to identify antagonists of the melanin-concentrating hormone receptor 1 (MCHR1).; type: functional
T3 sequence (Q99705 whole entry): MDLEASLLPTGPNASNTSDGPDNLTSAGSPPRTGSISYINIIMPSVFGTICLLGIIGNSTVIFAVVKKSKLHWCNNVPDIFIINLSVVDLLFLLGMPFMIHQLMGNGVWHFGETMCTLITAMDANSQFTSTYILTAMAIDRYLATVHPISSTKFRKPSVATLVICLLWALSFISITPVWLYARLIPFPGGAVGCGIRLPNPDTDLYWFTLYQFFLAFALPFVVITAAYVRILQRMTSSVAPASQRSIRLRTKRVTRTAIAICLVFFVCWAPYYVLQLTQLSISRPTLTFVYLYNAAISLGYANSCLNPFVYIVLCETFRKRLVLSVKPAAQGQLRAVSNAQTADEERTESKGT

X-box-binding protein 1 = X-box-binding protein 1 (Homo sapiens, UniProt P17861); type: functional, Cricetulus griseus;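 also: confirmatory dose-response counter-screen serving a CHOP assay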
Sequence of X-box-binding protein 1 (P17861 whole entry): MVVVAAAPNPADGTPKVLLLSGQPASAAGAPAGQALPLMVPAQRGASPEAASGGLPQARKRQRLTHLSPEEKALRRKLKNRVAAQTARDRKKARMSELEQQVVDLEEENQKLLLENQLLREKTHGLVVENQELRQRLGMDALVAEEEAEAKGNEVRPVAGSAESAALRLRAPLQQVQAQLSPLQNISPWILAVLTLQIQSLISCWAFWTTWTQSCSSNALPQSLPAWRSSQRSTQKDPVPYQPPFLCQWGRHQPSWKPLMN

[6] = molecular target: Beta-2 adrenergic receptor (Homo sapiens, UniProt P07550); assay: beta2AR agonists driving receptor internalization, dose response, cell-based, FAP fluorogen, flow cytometry, cherry pick 1 (AID 588763); type: functional
Cytochrome P450 2C9 = Cytochrome P450 2C9 (Homo sapiens, UniProt P11712); settings: Potency
Sequence of Cytochrome P450 2C9 (P11712 whole entry): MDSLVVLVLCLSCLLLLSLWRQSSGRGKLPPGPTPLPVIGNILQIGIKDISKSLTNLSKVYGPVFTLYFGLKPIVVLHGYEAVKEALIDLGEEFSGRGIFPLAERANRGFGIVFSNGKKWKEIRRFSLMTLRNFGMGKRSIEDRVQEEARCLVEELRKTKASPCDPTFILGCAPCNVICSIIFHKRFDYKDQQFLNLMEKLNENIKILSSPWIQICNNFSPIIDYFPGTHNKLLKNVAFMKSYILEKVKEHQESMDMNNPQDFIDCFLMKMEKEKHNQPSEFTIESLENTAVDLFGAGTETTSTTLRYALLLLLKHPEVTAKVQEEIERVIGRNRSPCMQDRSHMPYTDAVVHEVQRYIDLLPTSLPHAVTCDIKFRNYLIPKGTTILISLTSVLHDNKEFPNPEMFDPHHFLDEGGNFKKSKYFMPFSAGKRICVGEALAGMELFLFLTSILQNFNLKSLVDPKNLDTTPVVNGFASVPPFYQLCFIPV

Cytochrome P450 2C19 = Cytochrome P450 2C19 (Homo sapiens, UniProt P33261); assay: qHTS Assay for Inhibitors and Substrates of Cytochrome P450 2C19. [Related pubchem assays: 410 ]; type: ADME; settings: read-out: Potency
Sequence of Cytochrome P450 2C19 (P33261 whole entry): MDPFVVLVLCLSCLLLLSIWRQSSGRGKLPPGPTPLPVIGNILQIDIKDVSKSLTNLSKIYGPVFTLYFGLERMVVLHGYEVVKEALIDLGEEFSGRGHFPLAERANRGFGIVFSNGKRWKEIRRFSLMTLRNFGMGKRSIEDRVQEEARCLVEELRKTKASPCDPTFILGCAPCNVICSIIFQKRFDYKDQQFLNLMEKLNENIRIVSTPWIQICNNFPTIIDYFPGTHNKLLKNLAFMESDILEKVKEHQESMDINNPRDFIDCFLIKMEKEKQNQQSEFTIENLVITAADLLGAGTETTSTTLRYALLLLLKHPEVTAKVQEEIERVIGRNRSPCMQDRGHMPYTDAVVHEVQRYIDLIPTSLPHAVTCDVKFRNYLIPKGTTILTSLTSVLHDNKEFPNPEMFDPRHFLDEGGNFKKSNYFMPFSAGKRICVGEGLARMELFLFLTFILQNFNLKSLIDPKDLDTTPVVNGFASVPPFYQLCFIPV

[7] = Luminescence Cell-Based Dose Response HTS to Identify Inhibitors of 5'UTR Stem-Loop Driven Prion Protein mRNA Translation in H4 Neuroglioblastoma Cells. [Related pubchem assays: 1827 (Project Summary), 1813 (Primary HTS)]; type: functional
[8] = inhibitors of firefly luciferase expression or activity, dose response, H4 neuroglioma cells, luminescence (AID 1990); type: functional, cell-based
[9] = molecular target: Voltage-dependent T-type calcium channel subunit alpha-1H (Homo sapiens, UniProt O95180); type: functional;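 also: channel activity triggered by adding a high calcium stimulation buffer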
Sequence of Voltage-dependent T-type calcium channel subunit alpha-1H (O95180 whole entry): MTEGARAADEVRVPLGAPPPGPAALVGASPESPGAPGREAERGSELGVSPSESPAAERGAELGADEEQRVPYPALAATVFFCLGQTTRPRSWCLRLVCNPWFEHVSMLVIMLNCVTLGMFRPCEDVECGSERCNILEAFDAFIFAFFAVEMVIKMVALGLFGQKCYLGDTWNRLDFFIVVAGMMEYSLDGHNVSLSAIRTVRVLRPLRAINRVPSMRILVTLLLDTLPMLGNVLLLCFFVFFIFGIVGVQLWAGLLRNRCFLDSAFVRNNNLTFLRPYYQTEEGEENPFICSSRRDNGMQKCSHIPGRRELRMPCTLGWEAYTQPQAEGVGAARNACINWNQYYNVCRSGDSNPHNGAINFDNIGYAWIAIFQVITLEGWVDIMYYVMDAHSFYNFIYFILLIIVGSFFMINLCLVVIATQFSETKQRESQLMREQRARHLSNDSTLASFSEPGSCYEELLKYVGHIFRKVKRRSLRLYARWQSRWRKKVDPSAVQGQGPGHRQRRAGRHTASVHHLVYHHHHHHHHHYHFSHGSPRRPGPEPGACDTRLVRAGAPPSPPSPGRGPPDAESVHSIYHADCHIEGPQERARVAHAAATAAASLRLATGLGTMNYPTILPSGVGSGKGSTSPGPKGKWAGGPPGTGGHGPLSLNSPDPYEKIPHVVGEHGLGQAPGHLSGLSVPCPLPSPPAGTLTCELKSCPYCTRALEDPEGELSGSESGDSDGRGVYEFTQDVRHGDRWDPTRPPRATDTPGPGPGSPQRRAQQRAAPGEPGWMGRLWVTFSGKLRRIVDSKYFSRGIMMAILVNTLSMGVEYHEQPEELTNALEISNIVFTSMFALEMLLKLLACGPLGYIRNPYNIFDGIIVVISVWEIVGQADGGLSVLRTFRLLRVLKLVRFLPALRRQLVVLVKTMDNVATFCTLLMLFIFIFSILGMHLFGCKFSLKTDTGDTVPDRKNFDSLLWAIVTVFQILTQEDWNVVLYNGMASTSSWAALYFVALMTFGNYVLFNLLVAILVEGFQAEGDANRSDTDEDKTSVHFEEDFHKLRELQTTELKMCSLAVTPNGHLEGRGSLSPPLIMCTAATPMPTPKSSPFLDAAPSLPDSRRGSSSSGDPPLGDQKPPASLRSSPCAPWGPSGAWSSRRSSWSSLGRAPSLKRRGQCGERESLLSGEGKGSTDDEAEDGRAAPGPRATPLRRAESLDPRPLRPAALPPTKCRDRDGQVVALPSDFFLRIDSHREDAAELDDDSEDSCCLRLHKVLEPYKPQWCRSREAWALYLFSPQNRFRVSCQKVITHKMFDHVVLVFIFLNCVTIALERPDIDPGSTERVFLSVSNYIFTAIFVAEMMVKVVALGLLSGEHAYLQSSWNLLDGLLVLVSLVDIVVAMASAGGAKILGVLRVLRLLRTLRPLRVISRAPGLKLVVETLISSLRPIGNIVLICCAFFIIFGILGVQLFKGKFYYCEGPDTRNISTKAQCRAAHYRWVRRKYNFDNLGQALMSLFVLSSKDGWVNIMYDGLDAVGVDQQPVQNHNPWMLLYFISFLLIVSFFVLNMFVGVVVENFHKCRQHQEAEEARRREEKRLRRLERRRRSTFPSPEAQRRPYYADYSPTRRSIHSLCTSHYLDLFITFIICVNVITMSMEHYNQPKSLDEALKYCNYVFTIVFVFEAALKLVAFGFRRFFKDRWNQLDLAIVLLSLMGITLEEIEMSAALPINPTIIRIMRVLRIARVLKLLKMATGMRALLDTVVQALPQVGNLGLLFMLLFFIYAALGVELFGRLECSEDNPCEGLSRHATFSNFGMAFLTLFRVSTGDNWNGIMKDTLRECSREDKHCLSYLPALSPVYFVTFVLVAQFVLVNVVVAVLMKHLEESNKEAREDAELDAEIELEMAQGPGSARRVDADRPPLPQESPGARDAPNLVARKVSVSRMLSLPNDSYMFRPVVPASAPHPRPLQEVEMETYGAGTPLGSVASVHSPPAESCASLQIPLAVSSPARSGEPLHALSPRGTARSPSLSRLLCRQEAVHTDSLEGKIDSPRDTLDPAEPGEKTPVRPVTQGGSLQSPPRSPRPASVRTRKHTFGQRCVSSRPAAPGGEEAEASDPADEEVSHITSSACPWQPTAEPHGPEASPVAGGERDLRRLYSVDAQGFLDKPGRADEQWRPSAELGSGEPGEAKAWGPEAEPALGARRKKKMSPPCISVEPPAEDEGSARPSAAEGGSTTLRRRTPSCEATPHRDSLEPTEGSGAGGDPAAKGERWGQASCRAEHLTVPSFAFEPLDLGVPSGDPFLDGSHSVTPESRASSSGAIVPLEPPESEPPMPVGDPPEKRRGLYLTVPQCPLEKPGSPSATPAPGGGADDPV

[10] = inhibitors of SNCA 5'UTR-driven reporter translation, confirmation, H4 neuroglioma cells, luminescence (AID 1988); type: functional, cell-based
[11] = molecular target: T3, Melanin-concentrating hormone receptor 1; assay: Late-stage fluorescence-based counterscreen for antagonists of the G-protein coupled receptor 7 (GPR7): cell-based dose response assay to identify antagonists of the melanin-concentrating hormone receptor 1 (MCHR1). [Related pubchem assays (depositor defined):AID1861, AID1880, AID1952, AID2148, AID2251, AID2257, AID485339]; type: functional
[12] = cytotoxicity in HPDE-C7 cells, cell-based, fluorescence, HTS (AID 430); type: functional; settings: Homo sapiens
[13] = molecular target: T4, Replicative DNA helicase DnaB (Mycobacterium tuberculosis, UniProt P9WMR3); assay: DnaB intein splicing inhibitors, dose response, biochemical, cell-free fluorescence (AID 449749); type: functional
T4 sequence (P9WMR3 whole entry): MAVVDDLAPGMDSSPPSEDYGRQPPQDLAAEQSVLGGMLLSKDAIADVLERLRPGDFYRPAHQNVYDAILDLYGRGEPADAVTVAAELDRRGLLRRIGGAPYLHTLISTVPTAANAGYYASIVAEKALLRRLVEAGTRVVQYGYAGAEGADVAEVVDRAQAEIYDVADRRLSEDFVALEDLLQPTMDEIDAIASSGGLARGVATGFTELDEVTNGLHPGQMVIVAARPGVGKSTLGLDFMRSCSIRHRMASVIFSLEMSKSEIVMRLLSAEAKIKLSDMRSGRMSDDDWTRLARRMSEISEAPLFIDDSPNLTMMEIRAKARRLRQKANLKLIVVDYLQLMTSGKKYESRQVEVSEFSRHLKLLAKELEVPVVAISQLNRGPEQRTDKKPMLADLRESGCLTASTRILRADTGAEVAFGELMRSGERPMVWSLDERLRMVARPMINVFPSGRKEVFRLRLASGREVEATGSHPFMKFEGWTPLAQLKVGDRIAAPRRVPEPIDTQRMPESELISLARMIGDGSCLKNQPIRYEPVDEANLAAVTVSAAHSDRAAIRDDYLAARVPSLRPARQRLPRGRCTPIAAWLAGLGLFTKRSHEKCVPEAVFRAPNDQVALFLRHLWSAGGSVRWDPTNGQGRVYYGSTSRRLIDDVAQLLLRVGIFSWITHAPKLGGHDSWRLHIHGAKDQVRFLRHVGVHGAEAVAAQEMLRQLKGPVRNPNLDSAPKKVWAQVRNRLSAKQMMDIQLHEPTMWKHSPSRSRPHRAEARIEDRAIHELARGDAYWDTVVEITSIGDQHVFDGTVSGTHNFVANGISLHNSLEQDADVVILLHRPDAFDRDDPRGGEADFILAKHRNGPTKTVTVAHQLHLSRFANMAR

[14] = molecular target: Heat shock protein HSP 90-alpha (Homo sapiens, UniProt P07900); type: functional, organism-based
[15] = cytotoxicity in KRAS-transformed pancreatic duct cells, primary screen, cell-based, fluorescence, HTS (AID 431); type: functional; settings: Homo sapiens;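 also: cell line used: HPDE-C7K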
[16] = Glucagon-like peptide 1 release potency, NCI-H716 cell line, dose-response, half-maximal inhibitory concentration (AID 1117344); type: functional, cell-based
[17] = half-maximal inhibitory concentration for glucagon-like peptide-1 release, STC-1 cell line, dose-response (AID 1117345); type: functional, cell-based
[18] = molecular target: T5, Alkaline phosphatase, tissue-nonspecific isozyme (Homo sapiens, UniProt P05186)
T5 sequence (P05186 whole entry): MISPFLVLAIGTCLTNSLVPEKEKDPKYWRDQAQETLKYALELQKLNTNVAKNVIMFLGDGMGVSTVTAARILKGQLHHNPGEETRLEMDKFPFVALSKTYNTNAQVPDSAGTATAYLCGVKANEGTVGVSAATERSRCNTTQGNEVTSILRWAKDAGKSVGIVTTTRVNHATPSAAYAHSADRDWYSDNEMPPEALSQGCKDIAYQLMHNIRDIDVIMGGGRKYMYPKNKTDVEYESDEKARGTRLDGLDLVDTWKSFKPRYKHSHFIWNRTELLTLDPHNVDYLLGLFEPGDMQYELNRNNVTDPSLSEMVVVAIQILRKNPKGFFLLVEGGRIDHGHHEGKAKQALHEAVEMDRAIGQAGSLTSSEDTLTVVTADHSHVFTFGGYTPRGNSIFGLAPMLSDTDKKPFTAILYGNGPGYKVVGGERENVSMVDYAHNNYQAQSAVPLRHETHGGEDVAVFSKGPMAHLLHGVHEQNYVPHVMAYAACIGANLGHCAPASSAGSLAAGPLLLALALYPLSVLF

Protein RecA = molecular target: T6, Protein RecA (Mycobacterium tuberculosis, UniProt P9WHJ3); assay: Fluorescence Cell-Free Homogeneous Dose Retest to Identify Inhibitors of RecA-Intein Splicing Activity. [Related pubchem assays (depositor defined):AID2097, AID2223, AID489010, AID492950]; type: functional
T6 sequence (P9WHJ3 whole entry): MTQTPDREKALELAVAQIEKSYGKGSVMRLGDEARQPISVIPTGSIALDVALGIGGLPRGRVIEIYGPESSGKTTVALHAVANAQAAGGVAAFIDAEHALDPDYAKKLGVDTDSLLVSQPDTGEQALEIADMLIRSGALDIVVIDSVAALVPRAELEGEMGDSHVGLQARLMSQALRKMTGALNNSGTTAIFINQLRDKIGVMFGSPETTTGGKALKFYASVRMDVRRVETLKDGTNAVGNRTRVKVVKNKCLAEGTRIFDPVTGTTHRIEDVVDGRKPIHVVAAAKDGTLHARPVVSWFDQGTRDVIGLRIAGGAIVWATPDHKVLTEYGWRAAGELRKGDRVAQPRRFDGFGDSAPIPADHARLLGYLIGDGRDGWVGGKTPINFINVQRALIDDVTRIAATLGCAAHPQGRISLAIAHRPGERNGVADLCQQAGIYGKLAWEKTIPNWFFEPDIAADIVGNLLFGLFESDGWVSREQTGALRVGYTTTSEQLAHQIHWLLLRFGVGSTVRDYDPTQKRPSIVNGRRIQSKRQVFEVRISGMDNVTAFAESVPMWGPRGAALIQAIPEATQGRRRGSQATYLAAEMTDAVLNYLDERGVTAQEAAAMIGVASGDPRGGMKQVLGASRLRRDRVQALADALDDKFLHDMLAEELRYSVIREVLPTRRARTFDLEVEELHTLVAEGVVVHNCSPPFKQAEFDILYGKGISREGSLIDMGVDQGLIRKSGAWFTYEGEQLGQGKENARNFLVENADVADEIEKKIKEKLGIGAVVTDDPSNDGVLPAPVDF

Cc1ccc(O)c(N=Cc2cc(Cc3ccccc3)cc([N+](=O)[O-])c2O)c1
IC50 [1]: > 20 µM (inactive) | IC50 (Tumor necrosis factor): > 20 µM (inactive) | IC50 (HEK293): > 20 µM (inactive) | IC50 [2]: > 20 µM (inactive)

Cc1ccc(NC(=O)Nc2cccs2)c(Cl)c1
IC50 (Bcl-2-like protein 10): > 100 µM (inactive)

CN1C=CC2=C(C#N)C(N)C(C#N)(C#N)C(c3ccccc3)C2C1 (stereo not drawn)
IC50 [3]: 1.01 µM (active)

COc1ccc(OCC(=O)Nc2ccc3c(c2)C(=O)NC3=O)cc1
IC50 [4]: > 43.8 µM (not active) | IC50 [5]: > 43.8 µM (not active)

Cc1ccc(C(=O)N2CCCCC2)cc1S(=O)(=O)N1CCCCCC1
IC50 [4]: > 43.8 µM (not active) | IC50 [5]: > 43.8 µM (not active)

CCN(CCO)c1ncnc2c1sc1nc(CC(C)C)c3c(c12)CC(C)(C)OC3
Absolute IC50 (XBP1) (X-box-binding protein 1): 10 µM | EC50 [6]: 0.0454 µM (active)

CCCCCCCCCCCCCCCCOC[C@@H](COCC(F)(F)F)OP(=O)(O)OCO
AC50 (Cytochrome P450 2C9): 39.8 µM (inconclusive) | AC50 (Cytochrome P450 2C19): 0.002 µM (inconclusive)

Cc1cc(C)c(NC(=O)c2cc3c(nc4sccn43)s2)c(C)c1
IC50 (Bcl-2-like protein 10): > 100 µM (inactive)

CCc1nnc(NC(=O)CSc2nnc(C3CCCCC3)n2-c2cccc(Cl)c2)s1
EC50 [7]: > 120 µM (not active) | EC50 [8]: > 120 µM (not active) | EC50 [9]: 7.01 µM (active) | EC50 [10]: > 120 µM (not active)

COc1ccc(Oc2c(/C=N/O)cnn(-c3ccc(C(C)C)cc3)c2=O)cc1
IC50 [11]: > 20 µM (inactive)

Clc1ccc(CSC(Cn2ccnc2)c2ccc(Cl)cc2Cl)cc1 (stereo not drawn) [SULCONAZOLE NITRATE]
EC50 [12]: 7.1 µM (active) | AC50 [13]: 3.52 µM (active) | AC50 [14]: 0.294 µM (active) | EC50 [15]: 8.21 µM (active) | IC50 [16]: 21 µM (inactive) | IC50 [17]: > 40 µM (inactive) | EC50 [18]: 60.3 µM (not active) | EC50 (Protein RecA): 9.78 µM (active)
